Measurements: patent publication US10821128B2, “Treatment of cancer by systemic administration of Dbait molecules” (ONXEO, priority 2016, dated 2020)

Legend:
HCT116 [1] = assay: In vitro proliferation assay (live cell counts); assay type: cell-based, human
Experimental: (§1) CRC cell lines; HT29 (mutated p53, ATCC: HTB-38) and HCT116 (wild-type p53, ATCC: CCL-247) were purchased directly from ATCC. These cells were authenticated by ATCC by generating human short tandem repeat profiles by simultaneously amplifying multiple STR loci and amelogenin (for gender determination) using the Promega PowerPlex® Systems. These cells were cultured in the laboratory for less than 6 months from the date of purchase in DMEM medium supplemented with 10% fetal bovine serum, 1% sodium pyruvate, […] (Invitrogen, Carlsbad, Calif.), when the current study was performed. HT29 cell line stably expressing luciferase was established in-house using a pGL4.5 luciferase reporter vector (luc2/CMV/Hygro) (Promega). HT29 luciferase cells were supplemented with 200 μg/ml hygromycin B. All cell lines were additionally subjected to mycoplasma testing in-house and were free of mycoplasma contamination (Biovalley, France).
(§2) Cells were transfected with 2.5 μgs of Dbait (5′-[…]-(H) […]-3′ SEQ ID No 9) (Eurogentec, Belgium) where H is a hexaethyleneglycol linker and underlined nucleotides are phosphorothioates. The cells were sham transfected with an 8 bp oligonucleotide control (8H) complexed with 11 kDa polyethyleneimine (PEI) as previously described (Quantz et al, 2009, PloS one, 4, e6298).
(§3) Cells were seeded at a density of 3×10^4 cells/60 mm dishes and transfected with Dbait. Following treatment, cells were washed and left untreated or treated with a combination of 5 μM of oxaliplatin (OXA, Sigma) and 2.5 μM of 5-fluouracil (5-FU, Sigma) and live cell counts were performed on days 1, 3, 5, 6, 7 and 9.

HT29 [2] = assay: In vitro proliferation assay (live cell counts); assay type: cell-based, human
Experimental: as §1, §2, §3

HCT116 [3] = assay: Clonogenic survival assay; assay type: cell-based, human
Experimental: as §1, §2
(§4) Cells were transfected with Dbait and left untreated or treated with 5 μM of OXA and 2.5 μM of 5-FU for 1 hr. The cells were diluted, allowed to grow for 14 days and the clones were stained with crystal violet and counted.

HT29 [4] = assay: Clonogenic survival assay; assay type: cell-based, human
Experimental: as §1, §2, §4

[5] = tested on: pan-nuclear phosphorylation of H2AX in HCT116; assay: γH2AX immunofluorescence (DNA-PK activation); assay type: cell-based, human
Experimental: (§5) The inventors have previously shown that Dbait acts by activating DNA-PK kinase, which phosphorylate numerous targets including the histone variant H2AX.
(§6) γH2AX immunofluorescence was performed as described previously using a monoclonal anti-phospho-Histone H2A.X (Ser139) Antibody, clone JBW301 (1:500 dilution; 05-636, Millipore, USA) (9).

[6] = tested on: pan-nuclear phosphorylation of H2AX in HT29; assay: γH2AX immunofluorescence (DNA-PK activation); assay type: cell-based, human
Experimental: as §5, §6

MDA-MB-231 tumor = assay: DT01 with carboplatin in MDA-MB-231 TNBC model; assay type: in vivo, athymic nude mouse; settings: carboplatin alone treated group; 177 days of the experiment
Experimental: Treatment was administered in 3 cycles with a 2 week gap between cycles either alone or in association with carboplatin. Only one dose of carboplatin was injected per cycle of DT01 treatment (2nd day of each cycle). The dose of carboplatin was 50 mg/kg per cycle. Treatments were performed over 7 weeks (3 cycles of treatment).
Antitumor activity was evaluated by measuring tumor volume during and after treatment. DT01 was administered intraperitoneally during 3 sessions of 5 days treatment with two weeks of rest between each session. Carboplatin was administered once a week on the second day of each DT01 treatment cycle.
The MDA-MB231 cell line is derived from a human breast adenocarcinoma and can be ordered at the ATCC. The MDA-MB231 cells were grafted in the mammary fat pad with 10·10^6 cells re-suspended in 0.1 ml of DMEM with no additive. The athymic nude mouse is immunodeficient, thus enabling the xenotransplantation and growth of human tumors.

[7] = single treatment (Dbait alone, or OXA and 5-FU alone)
[8] = combination of Dbait with chemotherapy (OXA/5-FU), p=0.05

Molecule | cell proliferation (number of living cells) (HCT116 [1]; [7]) | level of proliferation compared to chemotherapy alone (HCT116 [1]; transfected with Dbait prior to OXA/5-FU, day 9, p<0.001) | cell proliferation (number of living cells) (HT29 [2]; [7]) | level of proliferation compared to chemotherapy alone (HT29 [2]; transfected with Dbait prior to OXA/5-FU, day 9, p<0.02) | lethality (HCT116 [3]; Dbait treatment alone, p<0.01) | clonogenic survival (HCT116 [3]; [8]) | clonogenic survival (HT29 [4]; [8]) | clonogenic survival (HT29 [4]; single treatment (Dbait alone, or chemotherapy alone p=0.08)) | activity by pan-nuclear phosphorylation of H2AX [5] | activity by pan-nuclear phosphorylation of H2AX [6] | abnormal death (MDA-MB-231 tumor)
5′-GCTGTGCCCACAACCCAGCAAACAAGCCTAGA-(H) TCTAGGCTTGTTTGCTGGGTTGTGGGCACAGC-3′ (hexaethyleneglycol linker; phosphorothioates; nucleic acid molecule Id; note=“at the 3′ end of the complementary strand the three last nucleotides with phosphorothioate or methylphosphonate backbone”; modified_base (1)..(3) mod_base= phosphorothioate or methylphosphonate backbone; (1)..(1) at the 5′ end, Lm = carboxamido oligoethylene glycol + C = single or double chain fatty acids, cholesterol, sugars, peptides or proteins; stem_loop (1)..(3) [Dbait] | no effect on cell proliferation | significantly reduced | no effect on cell proliferation | significantly reduced | approximately 30% | significant reduction in survival | significant reduction in survival | no significant effect | confirmed the activity | confirmed the activity | –
N.N.O=C([O-])C1(C(=O)[O-])CCC1.[Pt+2] [carboplatin] | – | – | – | – | – | – | – | – | – | – | one
